Where a name gives a salt, the structure may show the parent alone. Read-outs that look alike come from different tables or passages of the source.
How the values were obtained:
[1] = target: native endogenous human BACE1 (Homo sapiens (Human), UniProt P56817); assay: HEK293Swe Whole Cell Assay (Abeta lowering, ELISA); format: cell-based; conditions: HEK293/APP751sw cells, Mean ± SEM
[2] = target: native, endogenous murine BACE1 (Mus musculus (Mouse), UniProt P56818); assay: PDAPP Primary Neuronal Assay (Abeta lowering, ELISA); format: cell-based; conditions: primary cortical neurons from PDAPP embryos, 24 h, Mean ± SEM
Sequence of native, endogenous murine BACE1 (P56818 46-501): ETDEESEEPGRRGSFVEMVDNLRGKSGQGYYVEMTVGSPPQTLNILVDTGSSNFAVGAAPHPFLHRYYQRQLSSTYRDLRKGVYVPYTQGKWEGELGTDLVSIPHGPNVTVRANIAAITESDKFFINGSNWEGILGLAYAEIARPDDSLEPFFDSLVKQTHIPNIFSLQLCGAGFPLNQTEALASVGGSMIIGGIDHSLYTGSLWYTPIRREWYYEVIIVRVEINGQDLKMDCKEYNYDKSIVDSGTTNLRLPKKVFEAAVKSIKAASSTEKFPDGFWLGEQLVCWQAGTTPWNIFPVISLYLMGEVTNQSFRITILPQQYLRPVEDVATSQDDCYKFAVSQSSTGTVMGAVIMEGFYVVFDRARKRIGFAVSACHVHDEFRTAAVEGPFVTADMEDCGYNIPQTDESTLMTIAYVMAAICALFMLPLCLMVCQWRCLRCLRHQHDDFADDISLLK

beta-secretase = beta-secretase (Mus musculus (Mouse), UniProt P56818); assay: In Vivo Inhibition of Beta-Secretase in PDAPP mice
Sequence of beta-secretase (P56818 46-501): as above
human BACE1 (1-460):Fc = human BACE1 (1-460):Fc (Homo sapiens (Human), UniProt P56817); assay: BACE1 FRET Assay; format: biochemical; conditions: Mean ± SEM; purified recombinant huBACE1:Fc, FRET substrate, pH 4.6
Sequence of human BACE1 (1-460):Fc (P56817 22-460): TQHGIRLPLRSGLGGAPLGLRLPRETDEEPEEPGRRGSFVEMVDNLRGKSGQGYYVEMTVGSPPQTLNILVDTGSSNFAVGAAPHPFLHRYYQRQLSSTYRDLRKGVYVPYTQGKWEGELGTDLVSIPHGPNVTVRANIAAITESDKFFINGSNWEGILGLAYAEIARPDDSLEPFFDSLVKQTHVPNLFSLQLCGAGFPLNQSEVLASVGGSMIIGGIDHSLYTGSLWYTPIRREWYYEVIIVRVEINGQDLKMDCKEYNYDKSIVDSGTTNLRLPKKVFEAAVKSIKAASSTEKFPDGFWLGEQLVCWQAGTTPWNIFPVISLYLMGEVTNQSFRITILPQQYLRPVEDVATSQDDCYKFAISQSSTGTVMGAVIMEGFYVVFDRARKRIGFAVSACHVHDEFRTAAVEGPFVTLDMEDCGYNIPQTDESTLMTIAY

[3] = Abeta 1-40 in conditioned media, read-out: HEK 293 Swe A-beta (1-40) ELISA IC50
[4] = Abeta 1-40, read-out: PDAPP Neuron A-beta (1-40) ELISA IC50
[5] = Abeta 1-42, read-out: PDAPP Neuron A-beta (1-42) ELISA IC50
[6] = 10 mg/kg oral dose, 3 hours after administration, CSF
[7] = 10 mg/kg oral dose, 3 hours after administration, compared to vehicle-treated mice
[8] = 10 mg/kg oral dose, 3 hours, young female PDAPP mice, compared to vehicle-treated mice
[9] = 30 mg/kg oral dose, 3 hours after administration, compared to vehicle-treated mice

Sequence of native endogenous human BACE1 (P56817 46-501): as the sequence (P56818 46-501) above, with S6P, I162V, I165L, T180S, A182V, V340I, A393L, H443Q counted along it

Row | IC50 [1, 3] [nM] | IC50 [2, 4] [nM] | IC50 [2, 5] [nM] | CSF Abeta 1-x levels reduced (beta-secretase; [6]) | Reduction of CSF sAPPbeta (beta-secretase; [6]) [%] | Abeta 1-x peptide levels reduced in brain cortex (beta-secretase; [7]) | Abeta 1-x peptide levels reduced in brain hippocampus (beta-secretase; [7]) | C99 levels reduced in brain cortex (beta-secretase; [8]) [%] | C99 levels reduced in brain hippocampus (beta-secretase; [8]) [%] | sAPPb levels reduced in brain cortex (beta-secretase; [8]) [%] | sAPPb levels reduced in brain hippocampus (beta-secretase; [8]) [%] | IC50 (human BACE1 (1-460):Fc) [nM] | Abeta 1-x peptide levels reduced in brain cortex (beta-secretase; [9]) [%] | Abeta 1-x peptide levels reduced in brain hippocampus (beta-secretase; [9]) [%] | IC50 ([1]; Abeta 1-42 in conditioned media, read-out: HEK 293 Swe A-beta (1-42) ELISA IC50) [nM] | Structure (SMILES)
1 | 233 | 116 | 103 | approximately 80% | 22 | approximately 62% | approximately 51% | ~63 | ~58 | ~34 | ~37 | 64.4 | – | – | – | Cl.NC1=N[C@@]2(c3ccccc3)CN(c3ncc(F)cn3)C[C@H]2CS1 [Example 1, (4aR,7aS)-6-(5-Fluoropyrimidin-2-yl)-7a-phenyl-4,4a,5,7-tetrahydropyrrolo[3,4-d][1,3]thiazin-2-amine hydrochloride]
2 | – | – | – | – | – | – | – | – | – | – | – | 166 | – | – | – | NC1=N[C@@]2(c3ccc(F)s3)CN(c3ncccn3)C[C@H]2CS1 [Example 30, [(4aR,7aR)-7a-(5-Fluorothiophen-2-yl)-6-(pyrimidin-2-yl)-4,4a,5,6,7,7a-hexahydropyrrolo[3,4-d][1,3]thiazin-2-amine hydrochloride]
3 | – | – | – | – | – | approximately 23% | approximately 18% | – | – | – | – | – | ~63 | ~51 | – | Cl.N#Cc1ccc([C@]23CN(c4ncc(F)cn4)C[C@H]2CSC(N)=N3)s1 [Example 31, 5-[(4aR,7aR)-2-Amino-6-(5-fluoropyrimidin-2-yl)-4a,5,6,7-tetrahydropyrrolo[3,4-d][1,3]thiazin-7a(4H)-yl]thiophene-2-carbonitrile hydrochloride]
4 | 345 | 378 | 245 | – | – | – | – | – | – | – | – | 91.2 | – | – | 356 | NC1=N[C@@]2(c3ccc(F)s3)CN(c3ncc(F)cn3)C[C@H]2CS1 [Example 32, [(4aR,7aR)-6-(5-Fluoropyrimidin-2-yl)-7a-(5-fluorothiophen-2-yl)-4,4a,5,6,7,7a-hexahydropyrrolo[3,4-d][1,3]thiazin-2-amine hydrochloride]

From patent US8772282B2, “Tetrahydropyrrolothiazine compounds” (Eli Lilly and Company, priority 2012, dated 2014)
